In PubChem BioAssay (NCI):
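A five-concentration, 48-hour dose response in 96-well plates underlies each endpoint, interpolated linearly between surrounding concentrations. The concentration for 50% growth inhibition is given as GI50. Definition used: TGI = concentration required for complete inhibition of growth.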

How the values were obtained:
Test in all cases: NCI anticancer screen, dose series, 48 h
786-0 renal = tested on: 786-0 renal
A498 renal = tested on: A498 renal
A549 NSCLC = tested on: A549 NSCLC
ACHN renal = tested on: ACHN renal
BT-549 breast = tested on: BT-549 breast
CAKI-1 renal = tested on: CAKI-1 renal
CCRF-CEM leukemia = tested on: CCRF-CEM leukemia
COLO 205 colon = tested on: COLO 205 colon
DU-145 prostate = tested on: DU-145 prostate
EKVX NSCLC = tested on: EKVX NSCLC
HCC-2998 colon = tested on: HCC-2998 colon
HCT-116 colon = tested on: HCT-116 colon
HCT-15 colon = tested on: HCT-15 colon
HL-60(TB) leukemia = tested on: HL-60(TB) leukemia
HOP-62 NSCLC = tested on: HOP-62 NSCLC
HOP-92 NSCLC = tested on: HOP-92 NSCLC
HS 578T breast = tested on: HS 578T breast
HT29 colon = tested on: HT29 colon
IGROV1 ovarian = tested on: IGROV1 ovarian
K-562 leukemia = tested on: K-562 leukemia
KM12 colon = tested on: KM12 colon
LOX IMVI melanoma = tested on: LOX IMVI melanoma
M14 melanoma = tested on: M14 melanoma
MALME-3M melanoma = tested on: MALME-3M melanoma
MCF7 breast = tested on: MCF7 breast
MDA-MB-231 breast = tested on: MDA-MB-231 breast
MDA-MB-435 = tested on: MDA-MB-435
MOLT-4 leukemia = tested on: MOLT-4 leukemia
NCI-H226 lung = tested on: NCI-H226 lung
NCI-H23 lung = tested on: NCI-H23 lung
NCI-H460 lung = tested on: NCI-H460 lung
NCI-H522 lung = tested on: NCI-H522 lung
NCI/ADR-RES ovarian = tested on: NCI/ADR-RES ovarian
OVCAR-3 ovarian = tested on: OVCAR-3 ovarian
OVCAR-4 ovarian = tested on: OVCAR-4 ovarian
OVCAR-5 ovarian = tested on: OVCAR-5 ovarian
OVCAR-8 ovarian = tested on: OVCAR-8 ovarian
PC-3 prostate = tested on: PC-3 prostate
RPMI-8226 leukemia = tested on: RPMI-8226 leukemia
RXF 393 renal = tested on: RXF 393 renal
SF-268 CNS = tested on: SF-268 CNS
SF-295 CNS = tested on: SF-295 CNS
SF-539 CNS = tested on: SF-539 CNS
SK-MEL-2 melanoma = tested on: SK-MEL-2 melanoma
SK-MEL-28 melanoma = tested on: SK-MEL-28 melanoma
SK-MEL-5 melanoma = tested on: SK-MEL-5 melanoma
SK-OV-3 ovarian = tested on: SK-OV-3 ovarian
SN12C renal = tested on: SN12C renal
SNB-19 CNS = tested on: SNB-19 CNS
SNB-75 CNS = tested on: SNB-75 CNS
SR leukemia = tested on: SR leukemia
SW-620 colon = tested on: SW-620 colon
T-47D breast = tested on: T-47D breast
TK-10 renal = tested on: TK-10 renal
U251 CNS = tested on: U251 CNS
UACC-257 melanoma = tested on: UACC-257 melanoma
UACC-62 melanoma = tested on: UACC-62 melanoma
UO-31 renal = tested on: UO-31 renal

OB1OCc2cc(/C=C/c3cccc(C(F)(F)F)c3)ccc21
GI50 (786-0 renal): 0.365 µM
TGI (786-0 renal): 10.1 µM
GI50 (A498 renal): 1.13 µM
TGI (A498 renal): 9.22 µM
GI50 (A549 NSCLC): 0.695 µM
TGI (A549 NSCLC): 19.6 µM
GI50 (ACHN renal): 0.332 µM
TGI (ACHN renal): 1.34 µM
GI50 (BT-549 breast): 2.26 µM
TGI (BT-549 breast): > 100 µM
GI50 (CAKI-1 renal): 0.349 µM
TGI (CAKI-1 renal): 10.2 µM
GI50 (CCRF-CEM leukemia): 0.459 µM
TGI (CCRF-CEM leukemia): 33.7 µM
GI50 (COLO 205 colon): 2.31 µM
TGI (COLO 205 colon): > 100 µM
GI50 (DU-145 prostate): 0.554 µM
TGI (DU-145 prostate): 15.3 µM
GI50 (EKVX NSCLC): 3.65 µM
TGI (EKVX NSCLC): > 100 µM
GI50 (HCC-2998 colon): 2.54 µM
TGI (HCC-2998 colon): > 100 µM
GI50 (HCT-116 colon): 0.89 µM
TGI (HCT-116 colon): 11.8 µM
GI50 (HCT-15 colon): 1.33 µM
TGI (HCT-15 colon): > 100 µM
GI50 (HL-60(TB) leukemia): 0.298 µM
TGI (HL-60(TB) leukemia): 5.38 µM
GI50 (HOP-62 NSCLC): 0.483 µM
TGI (HOP-62 NSCLC): 17.4 µM
GI50 (HOP-92 NSCLC): 0.712 µM
TGI (HOP-92 NSCLC): 10.7 µM
GI50 (HS 578T breast): 4.49 µM
TGI (HS 578T breast): 66.6 µM
GI50 (HT29 colon): 1.44 µM
TGI (HT29 colon): > 100 µM
GI50 (IGROV1 ovarian): 1.88 µM
TGI (IGROV1 ovarian): 60.2 µM
GI50 (K-562 leukemia): 0.93 µM
TGI (K-562 leukemia): 24.2 µM
GI50 (KM12 colon): 2.26 µM
TGI (KM12 colon): > 100 µM
GI50 (LOX IMVI melanoma): 0.302 µM
TGI (LOX IMVI melanoma): 1.25 µM
GI50 (M14 melanoma): 0.653 µM
TGI (M14 melanoma): 35.3 µM
GI50 (MALME-3M melanoma): 7.65 µM
TGI (MALME-3M melanoma): 54.3 µM
GI50 (MCF7 breast): 0.452 µM
TGI (MCF7 breast): 44.4 µM
GI50 (MDA-MB-231 breast): 2.62 µM
TGI (MDA-MB-231 breast): 11.1 µM
GI50 (MDA-MB-435): 5.29 µM
TGI (MDA-MB-435): > 100 µM
GI50 (MOLT-4 leukemia): 0.454 µM
TGI (MOLT-4 leukemia): 12.9 µM
GI50 (NCI-H226 lung): 2.52 µM
TGI (NCI-H226 lung): 56.4 µM
GI50 (NCI-H23 lung): 0.625 µM
TGI (NCI-H23 lung): 80.6 µM
GI50 (NCI-H460 lung): 0.48 µM
TGI (NCI-H460 lung): 22.8 µM
GI50 (NCI-H522 lung): 0.991 µM
TGI (NCI-H522 lung): 87.9 µM
GI50 (NCI/ADR-RES ovarian): 0.544 µM
TGI (NCI/ADR-RES ovarian): 23.9 µM
GI50 (OVCAR-3 ovarian): 1.37 µM
TGI (OVCAR-3 ovarian): 17.8 µM
GI50 (OVCAR-4 ovarian): 1.86 µM
TGI (OVCAR-4 ovarian): 17.3 µM
GI50 (OVCAR-5 ovarian): 5.15 µM
TGI (OVCAR-5 ovarian): > 100 µM
GI50 (OVCAR-8 ovarian): 0.918 µM
TGI (OVCAR-8 ovarian): 24.2 µM
GI50 (PC-3 prostate): 1.88 µM
TGI (PC-3 prostate): > 100 µM
GI50 (RPMI-8226 leukemia): 2.38 µM
TGI (RPMI-8226 leukemia): > 100 µM
GI50 (RXF 393 renal): 2.23 µM
TGI (RXF 393 renal): 11.4 µM
GI50 (SF-268 CNS): 0.564 µM
TGI (SF-268 CNS): 48.1 µM
GI50 (SF-295 CNS): 0.432 µM
TGI (SF-295 CNS): 16.1 µM
GI50 (SF-539 CNS): 0.405 µM
TGI (SF-539 CNS): 11.1 µM
GI50 (SK-MEL-2 melanoma): 46.1 µM
TGI (SK-MEL-2 melanoma): > 100 µM
GI50 (SK-MEL-28 melanoma): 18.8 µM
TGI (SK-MEL-28 melanoma): > 100 µM
GI50 (SK-MEL-5 melanoma): 2.05 µM
TGI (SK-MEL-5 melanoma): 81.4 µM
GI50 (SK-OV-3 ovarian): 2.9 µM
TGI (SK-OV-3 ovarian): 63.5 µM
GI50 (SN12C renal): 1.46 µM
TGI (SN12C renal): > 100 µM
GI50 (SNB-19 CNS): 0.765 µM
TGI (SNB-19 CNS): 48.7 µM
GI50 (SNB-75 CNS): 0.852 µM
TGI (SNB-75 CNS): 6.2 µM
GI50 (SR leukemia): 0.318 µM
TGI (SR leukemia): 11.6 µM
GI50 (SW-620 colon): 1.57 µM
TGI (SW-620 colon): > 100 µM
GI50 (T-47D breast): 0.425 µM
TGI (T-47D breast): > 100 µM
GI50 (TK-10 renal): 2.46 µM
TGI (TK-10 renal): 34.1 µM
GI50 (U251 CNS): 0.64 µM
TGI (U251 CNS): 17.3 µM
GI50 (UACC-257 melanoma): 4.31 µM
TGI (UACC-257 melanoma): > 100 µM
GI50 (UACC-62 melanoma): 0.551 µM
TGI (UACC-62 melanoma): 63.4 µM
GI50 (UO-31 renal): 0.551 µM
TGI (UO-31 renal): 20.3 µM
